Measured values taken from article PMC11489226 (Archives of Toxicology, 2024).

Experiments:
CYP2A6 = molecular target: T1, CYP2A6 (Homo sapiens, UniProt P11509); assay: Urinary 1,7-dimethyluric acid/paraxanthine metabolic ratio after caffeine (CYP2A6 phenotyping); settings: urine, 0–360 min after 50 mg caffeine oral; ten PCB-exposed subjects
T1 sequence (P11509 1-494): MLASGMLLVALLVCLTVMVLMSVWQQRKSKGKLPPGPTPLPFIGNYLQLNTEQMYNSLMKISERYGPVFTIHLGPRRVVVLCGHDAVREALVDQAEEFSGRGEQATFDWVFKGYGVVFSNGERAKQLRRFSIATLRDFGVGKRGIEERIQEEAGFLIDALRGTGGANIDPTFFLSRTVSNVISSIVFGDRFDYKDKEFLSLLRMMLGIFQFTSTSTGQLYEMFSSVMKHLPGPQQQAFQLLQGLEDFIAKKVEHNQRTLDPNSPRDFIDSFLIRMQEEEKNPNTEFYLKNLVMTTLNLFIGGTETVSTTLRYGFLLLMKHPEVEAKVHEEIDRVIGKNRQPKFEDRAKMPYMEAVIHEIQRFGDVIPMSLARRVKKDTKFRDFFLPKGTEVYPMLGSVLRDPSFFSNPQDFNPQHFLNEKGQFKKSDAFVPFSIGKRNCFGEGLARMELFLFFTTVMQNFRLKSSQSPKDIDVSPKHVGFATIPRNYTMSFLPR
Excerpt: Ten subjects with prior occupational exposure to PCBs and ten controls were included into a clinical CYP phenotyping cocktail study at the Institute for Occupational, Social and Environmental Medicine, University Hospital RWTH Aachen. PCB-exposed participants were reinvited from the HELPcB (Health Effects in High-Level Exposure to PCB) medical surveillance program. […] Subjects were allowed to consume non-caffeinated beverages and received a meal 3 following the administration of the drug cocktail. Concentrations of the test compounds and their CYP-mediated metabolites were measured using LC–MS, with urine sampling over 24 h with 5 time points at 1,2,4,6, and 24 h after drug cocktail intake. […] Urine samples were weighed during sampling.
20 µL urine or calibrators and quality controls in Sigmatrix urine diluent (SAE0074-1L, Sigma-Aldrich) were protein precipitated with 80 µL methanol including 1000 ng/mL internal standards caffeine-d9, paraxanthine-d6, and 1,7-dimethyluric acid-d3. Samples were briefly vortexed and centrifuged for 5 min at 17,000g and 4 °C. […] Caffeine and paraxanthine were detected in positive ion mode and 1,7-dimethyluric acid in negative ion mode. […] The metabolic ratio for 1,7-dimethyluric acid/paraxanthine was calculated based on the measured urine concentrations. […]

HEK293CYP2A6 cells [1] = assay: Light microscopic evaluation of HEK293CYP2A6 cells; type: cell-based, human; settings: 24 h of incubation (data not shown)
[2] = PCB concentrations in plasma of HELPcB participants (2010); type: in vivo, human; settings: human, plasma, other: occupational exposure, sample of 2010
HEK293CYP2A6 cells [3] = assay: MTT assay in HEK293CYP2A6 cells; type: cell-based, human; settings: for Concentration from which the fraction of cell viability affected (FA) increased: HEK293CYP2A6 cells, MTT; for IC50: Homo sapiens, HEK293CYP2A6 cell line, read-out: IC50 (MTT, cell viability / metabolic activity); for PCB concentration at which the difference between HEK293 cells and CYP2A6 transgenic cells becomes statistically significant: MTT assay, Fig. 2
Experimental: For the determination of metabolic activity, HEK293 cells as well as transgenic HEK293CYP2A6 and HEK293CYP2C9 cells were plated into 96-well flat-bottomed microtiter plates (Becton Dickinson, Heidelberg, Germany) at a density of 1 × 10^5 cells in 100 μL of media. Cells were allowed to grow for 24 h geneticin free before PCBs were added. Controls included cells grown in medium with and without ethanol (maximal 1% (vol/vol)) added. After 48 h, the ability of remaining viable cells to transform 3-(4,5-dimethylthiazol-2-yl)-2,5-diphenyltetrazolium bromide (MTT) into formazan was assessed (MTT Cell Proliferation Assay, ATCC, Manassas, USA). The absorbance of the samples was measured on a Microplate Reader (FLUOstar, BMG Labtech, Ortenberg, Germany) at 450 nm.

HEK293CYP2C9 cells [4] = assay: Neutral comet assay in HEK293CYP2C9 cells; type: cell-based, human; settings: HEK293CYP2C9 control cells; 20 or 30 µM
Experimental: (§1) For neutral comet assays, transgenic CYP2A6 and transgenic CYP2C9 cells were treated with parent PCBs for 5 h. After treatments, 50 μL of a suspension of 10^5 cells/mL were washed in PBS and resuspended in 500 μL of preheated agarose (37 °C). The agarose/cell suspensions were applied to microscopic slides and left for 30 min at 4 °C to allow gel polymerization. After cell lysis using a commercial buffer (Trevigen, Gaithersburg, USA), single-cell gel electrophoresis was performed at 1 V/cm for 1 h. After precipitation of the DNA with ammonium acetate, samples were fixed in 70% ethanol for 30 min and dried. To visualize dsDNA, SYBR™ Green I Nucleic Acid Gel Stain (Invitrogen, Carlsbad, USA) was used. Pictures of at least 50 cells/section were taken using a fluorescence microscope (DMRX, Leica: 450–490 nm BP- filter, 40 × magnification). The extent of the genotoxic effect of PCBs was calculated using the ImageJ-based OpenComet software.

HEK293CYP2A6 cells [5] = assay: Neutral comet assay in HEK293CYP2A6 cells; type: cell-based, human; settings: for Comet assay: percentage of tail DNA / DNA damage above background: 20 or 30 µM
Experimental: as §1

HEK293CYP2C9 cells [6] = assay: Micronucleus assay in HEK293CYP2C9 cells; type: cell-based, human; settings: 20 and 30 µM, 24 h
Experimental: (§2) Transgenic HEK293CYP2A6 and HEK293CYP2C9 cells were cultured in T25 flasks, with a seeding density of 1 × 10^6 cells per flask at 37 °C with 5% CO2. Cells were allowed to grow for 24 h geneticin free before PCBs were added (20 µM or 30 µM). Controls included cells grown in the presence of 1% ethanol (vol/vol) (negative control) or […] 4-nitroquinoline 1-oxide (positive control). Following further incubation for 24 h, cells were synchronized by adding Cytochalasin B. Subsequently, cells were harvested by trypsinization, centrifuged (2,000g, 10 min), and washed with DPBS (Dulbecco’s PBS). For hypotonic shock, 4 °C cold potassium chloride solution was added to the cells under agitation. Cells were completely resuspended and incubated at room temperature for 5 min. After centrifugation (2,500g, 10 min), the supernatant was discarded. To fix the cells, they were treated with a methanol/acetic acid solution (− 20 °C), with a minimum incubation time of 15 min at room temperature. Following centrifugation (2,500g, 10 min), the supernatant was discarded, and the fixation process was repeated at least three times. Finally, the samples were dissolved in 1 mL of fixative solution and incubated overnight at 4 °C. For analysis, two to three drops from each sample were placed on a glass slide, with intermittent heating of the slide. Subsequently, the cells were visualized with acridine orange, and using a fluorescence microscope (Leica DM6000B, Filter I3 450–490 nm), 2,000 cells per sample were counted.

human lymphocytes [7] = system: human lymphocytes; design: method as in Sargent et al. [1989]; settings: ref Sargent et al. [1989]; cited from earlier work
[8] = system: Salmonella typhimurium strains; design: method as in Wyndham et al. [1976]; settings: PCB52 and its primary metabolites; ref Wyndham et al. [1976]; cited from earlier work
bone marrow and liver = system: bone marrow and liver; design: method as in Sargent et al. [1992]; settings: ref Sargent et al. [1992]; cited from earlier work
HEK293CYP2A6 cells [9] = assay: Micronucleus assay in HEK293CYP2A6 cells; type: cell-based, human; settings: HEK293CYP2A6 cells; 20 and 30 µM, 24 h
Experimental: as §2

human lymphocytes [10] = system: human lymphocytes; design: method as in Stadnicki et al. [1979]; settings: ref Stadnicki et al. [1979]; cited from earlier work
mouse fibroblasts = system: mouse fibroblasts; design: method as in Stadnicki et al. [1979]; settings: ref Stadnicki et al. [1979]; cited from earlier work
human lung fibroblast = system: human lung fibroblast; design: method as in Hashmi et al. [2015]; settings: higher concentrations compared to lower concentrations; ref Hashmi et al. [2015]; cited from earlier work
fish cells = system: fish cells; design: method as in Marabini et al. [2011]; settings: ref Marabini et al. [2011]; cited from earlier work

Cn1c(=O)[nH]c2[nH]c(=O)n(C)c2c1=O [1,7-DMU, 1,7-dimethyluric acid]
Logarithmically transformed metabolic ratio of 1,7-DMU and paraxanthine, median (CYP2A6): 0.4

Clc1ccc(-c2ccc(Cl)cc2Cl)cc1 [PCB28, 2,4,4′-trichlorobiphenyl]
Light microscopic evaluation: type of effect (HEK293CYP2A6 cells [1]): primarily cytotoxic effects (cell death) | concentration at 2010 calendar year ([2]; HELPcB participant AD): 0.823 ng/mL | concentration at 2010 calendar year ([2]; HELPcB participant AE): 1.48 ng/mL | concentration at 2010 calendar year ([2]; HELPcB participant eight): 0.1 ng/mL | concentration at 2010 calendar year ([2]; HELPcB participant five): 0.21 ng/mL | concentration at 2010 calendar year ([2]; HELPcB participant four): 0.023 ng/mL | concentration at 2010 calendar year of sampling ([2]; HELPcB participant one): 2.69 ng/mL | concentration at 2010 calendar year ([2]; HELPcB participant seven): 0.051 ng/mL | concentration at 2010 calendar year ([2]; HELPcB participant six): 0.309 ng/mL | concentration at 2010 calendar year ([2]; HELPcB participant three): 0.999 ng/mL | concentration at 2010 calendar year of sampling ([2]; HELPcB participant two): 0.019 ng/mL | Concentration from which the fraction of cell viability affected (FA) increased (HEK293CYP2A6 cells [3]): 10 µM | IC50 (HEK293CYP2A6 cells [3]): 27 µM | PCB concentration at which the difference between HEK293 cells and CYP2A6 transgenic cells becomes statistically significant (HEK293CYP2A6 cells [3]): 40 µM | Comet assay: increase in percentage of tail DNA (HEK293CYP2C9 cells [4]): not evident | DNA damage classified according to the comet scale (percentage of tail DNA) (HEK293CYP2A6 cells [5]; 20 µM): moderate damage | DNA damage classified according to the comet scale (percentage of tail DNA) (HEK293CYP2A6 cells [5]; 30 µM): moderate damage | Comet assay: percentage of tail DNA / DNA damage above background (HEK293CYP2A6 cells [5]): concentration-dependent increase | Percentages of micronuclei (HEK293CYP2C9 cells [6]): inactive

Clc1ccc(Cl)c(-c2cc(Cl)ccc2Cl)c1 [PCB52, 2,2′,5,5′-tetrachlorobiphenyl]
Light microscopic evaluation: type of effect (HEK293CYP2A6 cells [1]): cytostatic effects (proliferation arrest) | Sister chromatid exchange (human lymphocytes [7]): negative | Mutagenic activity [8]: did not exhibit mutagenic activity | Chromosomal aberrations in vivo (bone marrow and liver): absence of chromosomal aberrations | concentration at 2010 calendar year ([2]; HELPcB participant AD): 0.026 ng/mL | concentration at 2010 calendar year ([2]; HELPcB participant AE): 0.005 ng/mL | concentration at 2010 calendar year ([2]; HELPcB participant eight): 0.005 ng/mL | concentration at 2010 calendar year ([2]; HELPcB participant five): 0.031 ng/mL | concentration at 2010 calendar year ([2]; HELPcB participant four): 0.005 ng/mL | concentration at 2010 calendar year of sampling ([2]; HELPcB participant one): 0.348 ng/mL | concentration at 2010 calendar year ([2]; HELPcB participant seven): 0.021 ng/mL | concentration at 2010 calendar year ([2]; HELPcB participant six): 0.043 ng/mL | concentration at 2010 calendar year ([2]; HELPcB participant three): 0.04 ng/mL | concentration at 2010 calendar year of sampling ([2]; HELPcB participant two): 0.005 ng/mL | Concentration from which the fraction of cell viability affected (FA) increased (HEK293CYP2A6 cells [3]): 20 µM | IC50 (HEK293CYP2A6 cells [3]): 26.2 µM | PCB concentration at which the difference between HEK293 cells and CYP2A6 transgenic cells becomes statistically significant (HEK293CYP2A6 cells [3]): 40 µM | DNA damage classified according to the comet scale (percentage of tail DNA) (HEK293CYP2A6 cells [5]; 20 µM): low damage | DNA damage classified according to the comet scale (percentage of tail DNA) (HEK293CYP2A6 cells [5]; 30 µM): low damage | Comet assay: percentage of tail DNA / DNA damage above background (HEK293CYP2A6 cells [5]): not | Percentages of micronuclei (HEK293CYP2A6 cells [9]): diminished effect | Percentages of micronuclei (HEK293CYP2C9 cells [6]): indistinguishable effects | DNA strand breaks (human lymphocytes [10]): positive or weakly positive | DNA strand breaks (mouse fibroblasts): positive or weakly positive

Clc1ccc(Cl)c(-c2cc(Cl)c(Cl)cc2Cl)c1 [PCB101, 2,2′,4,5,5′-pentachlorobiphenyl]
Light microscopic evaluation: type of effect (HEK293CYP2A6 cells [1]): cytostatic effects (proliferation arrest) | concentration at 2010 calendar year ([2]; HELPcB participant AD): 0.073 ng/mL | concentration at 2010 calendar year ([2]; HELPcB participant AE): 0.005 ng/mL | concentration at 2010 calendar year ([2]; HELPcB participant eight): 0.005 ng/mL | concentration at 2010 calendar year ([2]; HELPcB participant five): 0.111 ng/mL | concentration at 2010 calendar year ([2]; HELPcB participant four): 0.005 ng/mL | concentration at 2010 calendar year of sampling ([2]; HELPcB participant one): 0.519 ng/mL | concentration at 2010 calendar year ([2]; HELPcB participant seven): 0.03 ng/mL | concentration at 2010 calendar year ([2]; HELPcB participant six): 0.227 ng/mL | concentration at 2010 calendar year ([2]; HELPcB participant three): 0.078 ng/mL | concentration at 2010 calendar year of sampling ([2]; HELPcB participant two): 0.005 ng/mL | Concentration from which the fraction of cell viability affected (FA) increased (HEK293CYP2A6 cells [3]): 20 µM | IC50 (HEK293CYP2A6 cells [3]): 34.8 µM | PCB concentration at which the difference between HEK293 cells and CYP2A6 transgenic cells becomes statistically significant (HEK293CYP2A6 cells [3]): 60 µM | Genotoxicity (human lung fibroblast): increased significantly | DNA damage classified according to the comet scale (percentage of tail DNA) (HEK293CYP2A6 cells [5]; 20 µM): high damage | DNA damage classified according to the comet scale (percentage of tail DNA) (HEK293CYP2A6 cells [5]; 30 µM): moderate damage | Comet assay: percentage of tail DNA / DNA damage above background (HEK293CYP2A6 cells [5]): DNA damage was also seen | Genotoxicity compared with etoposide (comet assay) (HEK293CYP2A6 cells [5]; etoposide 10 µm positive control): more potent than of etoposide | Percentages of micronuclei (HEK293CYP2A6 cells [9]): approximately threefold elevated | Percentages of micronuclei (HEK293CYP2C9 cells [6]): inactive | DNA strand breaks (fish cells): induce | Micronucleus formation (fish cells): induce
